Results taken from US20030044399A1, “Method of treatment” (SmithKline Beecham Corporation, priority 1998, published 2003).
Like-named read-outs stand apart in the source and are kept apart here.

Columns and labels:
[1] = target: Cruzain (Trypanosoma cruzi, UniProt P25779); test: Cysteine protease inhibition, progress curve method, cruzain; format: biochemical; settings: 4 uM Ac-Lys-Glu-Lys-Leu-Arg-AMC, 100 mM Na acetate pH 5.5, 5 mM cysteine; read-out: Cruzain Ki
Procedure: (§1) Standard assay conditions for the determination of kinetic constants used 10 uM fluorogenic peptide substrate, Cbz-Phe-Arg-AMC for the cysteine proteases from Leishmania spp and Schistosoma Mansoni, Cbz-Leu-Arg-AMC for the cysteine proteases from Plasmodium falciparum and Trypanosoma brucei rhodesiensi, and Ac-Lys-Glu-Lys-Leu-Arg-AMC (4 uM final substrate concentration) for the cysteine protease from Trypoanosoma cruzi, and were determined in 100 mM Na acetate at pH 5.5 containing 5 mM cysteine. Stock substrate solutions were prepared at concentrations of […] in DMSO with 10 uM (4 uM for Ac-Lys-Glu-Lys-Leu-Arg-AMC) final substrate concentration in the assays. The final DMSO concentration was 2% and the final volume was 100 uL. All assays were conducted at ambient temperature. Product progress curves were generated over 20 to 30 minutes following formation of AMC product.
(§2) Potential inhibitors were evaluated using the progress curve method. Assays were carried out in the presence of variable concentrations of test compound. Reactions were initiated by addition of enzyme to buffered solutions of inhibitor and substrate. Data analysis was conducted according to one of two procedures depending on the appearance of the progress curves in the presence of inhibitors. For those compounds whose progress curves were linear, apparent inhibition constants (Ki,app) were calculated according to equation 1 (Brandt et al., Biochemitsry, 1989, 28, 140):
(§3) v=VmA/[Ka(1+I/Ki,app)+A] (1)
(§4) Where v is the velocity of the reaction with maximal velocity Vm, A is the concentration of substrate with Michaelis constant of Ka, and I is the concentration of inhibitor.
(§5) [AMC]=vsst+(v0−vss)[1−exp (−kobst)]/kobs (2)
(§6) Where [AMC] is the concentration of product formed over time t, v0 is the initial reaction velocity and vss is the final steady state rate. Values for kobs were then analyzed as a linear function of inhibitor concentration to generate an apparent second order rate constant (kobs/inhibitor concentration or kobs/[I]) describing the time-dependent inhibition. A complete discussion of this kinetic treatment has been fully described (Morrison et al., Adv. Enzymol. Relat. Areas Mol. Biol., 1988, 61, 201).
(§7) Exemplary inhibition data for the compounds used in the present method collected in accordance with the above-described procedure are listed in Table I.

[2] = target: Rhodazain (Trypanosoma brucei rhodesiense, UniProt Q95PM0); test: Cysteine protease inhibition, progress curve method, rhodazain; format: biochemical, Trypanosoma brucei rhodesiensi; settings: 10 uM Cbz-Leu-Arg-AMC, 100 mM Na acetate pH 5.5, 5 mM cysteine
Rhodazain, sequence (Q95PM0 entry or part of it): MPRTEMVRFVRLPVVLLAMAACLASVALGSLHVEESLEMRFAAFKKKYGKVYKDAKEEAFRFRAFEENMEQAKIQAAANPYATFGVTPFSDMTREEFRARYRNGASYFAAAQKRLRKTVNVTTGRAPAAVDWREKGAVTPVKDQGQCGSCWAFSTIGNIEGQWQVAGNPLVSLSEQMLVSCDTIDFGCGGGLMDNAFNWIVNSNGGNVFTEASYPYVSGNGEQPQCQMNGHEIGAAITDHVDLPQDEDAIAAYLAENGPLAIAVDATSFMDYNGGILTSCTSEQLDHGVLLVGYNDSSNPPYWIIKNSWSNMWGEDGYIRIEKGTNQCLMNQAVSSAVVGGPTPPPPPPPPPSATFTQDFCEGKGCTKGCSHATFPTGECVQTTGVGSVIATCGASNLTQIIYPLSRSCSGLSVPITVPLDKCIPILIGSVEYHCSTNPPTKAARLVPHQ
Procedure: as §1, §2, §3, §4, §5, §6, §7

Cruzain, sequence (P25779 123-337): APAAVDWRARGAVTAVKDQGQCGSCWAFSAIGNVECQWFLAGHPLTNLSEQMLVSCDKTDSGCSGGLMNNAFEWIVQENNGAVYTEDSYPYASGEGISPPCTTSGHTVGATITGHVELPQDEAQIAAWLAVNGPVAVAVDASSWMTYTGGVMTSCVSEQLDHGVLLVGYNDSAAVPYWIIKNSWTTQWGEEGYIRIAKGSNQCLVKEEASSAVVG

Compound	Ki [1] [nM]	Ki ([2]; Rhodazain Ki (nM)) [nM]	Ki ([2]; read-out: Rhodazain Ki) [nM]
CC(C)C[C@H](NC(=O)c1cc2ccccc2n1C)C(=O)N[C@H]1CCCN(S(=O)(=O)c2nccs2)CC1=O [Example 128, 1-Methyl-1H-indole-2-carboxylic acid{(S)-3-methyl-1-[3-oxo-1-(thiazole-2-sulfonyl)-azepan-4-ylcarbamoyl]-butyl}amide]	17	8.2	
COc1cc2cc(C(=O)N[C@H](CC(C)C)C(=O)N[C@@H]3CCCN(S(=O)(=O)c4cccc[n+]4[O-])CC3=O)oc2cc1OC [Example 52, 5,6-Dimethoxy-benzofuran-2-carboxylic acid {(S)-3-methyl-1-[3-oxo-1-(1-oxy-pyridine-2-sulfonyl)-azepan-4-ylcarbamoyl]-butyl}amide]	48	3.3	
5,6-Dimethoxy-benzofuran-2-carboxylic acid {(S)-3-methyl-1-[3-oxo-1-(1-oxy-pyridine-2-sulfonyl)-azepan-4-ylcarbamoyl]-butyl}amide [Example 48]	19		4.2
COc1ccc2oc(C(=O)N[C@@H](CC(C)C)C(=O)N[C@H]3CCN(S(=O)(=O)c4cccc[n+]4[O-])CCC3=O)c(C)c2c1 [Example 205, 5-Methoxy-3-methyl-benzofuran-2-carboxylic acid {(S)-3-methyl-1-[3-oxo-1-(1-oxy-pyridine-2-sulfonyl)-azepan-4-ylcarbamoyl]-butyl}-amide]	5.2	3.2	
Cc1oc(-c2ccccc2)nc1C(=O)N[C@@H](CC(C)C)C(=O)NC1CCCN(S(=O)(=O)c2ccccn2)CC1=O (stereo partly drawn) [Example 106, 5-Methyl-2-phenyl-oxazole-4-carboxylic acid {(S)-3-methyl-1-[3-oxo-1-(pyridine-2-sulfonyl)-azepan-4-ylcarbamoyl]-butyl}amide]	16	5.8	
Cc1c(C(=O)N[C@H](CC(C)C)C(=O)N[C@H]2CCCN(S(=O)(=O)c3cccc[n+]3[O-])CC2=O)oc2ccc(F)cc12 (single isomer, unassigned) [Example 195]	9.4	6.6	
CC(C)C[C@@H](NC(=O)c1ccc2c(c1)OCO2)C(=O)N[C@@H]1CCCN(S(=O)(=O)c2cccc[n+]2[O-])CC1=O [Example 55, Benzo[1,3]dioxole-5-carboxylic acid {(S)-3-methyl-1-[3-oxo-1-(1-oxy-pyridine-2-sulfonyl)-azepan-4-ylcarbamoyl]-butyl}amide]	12	7.3	
O=C(N[C@@H](Cc1ccccc1)C(=O)NC1CCCN(S(=O)(=O)c2ccccn2)CC1=O)c1cccc2cccnc12 (stereo partly drawn) [Example 176, Quinoline-8-carboxylic acid {(S)-1-[3-oxo-1-(pyridine-2-sulfonyl)-azepan-4-ylcarbamoyl]-2-phenyl-ethyl}-amide]		5.9	
CC(C)C[C@@H](NC(=O)c1ccc2ccccc2c1)C(=O)N[C@@H]1CCCN(S(=O)(=O)c2ccccn2)CC1=O (stereo in doubt) [Example 17, Naphthalene-2-carboxylic acid {(S)-3-methyl-1-[3-oxo-1-(pyridine-2-sulfonyl)-azepan-4-ylcarbamoyl]butyl}-amide]		8.3	
COc1ccc(CCCCC(=O)NC(CC(C)C)C(=O)NC2CCCN(S(=O)(=O)c3ccccn3)CC2=O)cc1 [Example 122, (S)-2-[5-(4-Methoxy-phenyl)-pentanoylamniol-4-methyl-pentanoic acid [3-oxo-1-(pyridine-2-sulfonyl)-azepan-4-yl[-amide]		8.8	
CC(C)C[C@@H](NC(=O)c1cc2cc(F)ccc2o1)C(=O)N[C@@H]1CCCN(S(=O)(=O)c2ccccn2)CC1=O (single isomer, unassigned) [Example 168]		2.7	
COc1ccc(C(=O)NC(CC(C)C)C(=O)N[C@@H]2CCCN(S(C)(=O)=O)CC2=O)cc1OC (some centres unmarked) [Example 113]		7.8	
CC(C)C[C@H](NC(=O)c1cc2ccccc2o1)C(=O)N[C@@H]1CCCN(S(C)(=O)=O)CC1=O [Example 112, Benzofuran-2-carboxylic acid-{(S)-1-(1-methanesulfonyl-3-oxo-azepan-4-ylcarbamoyl)-3-methyl-butyl]-amide]		8.5	
CC(C)C[C@@H](NC(=O)c1cc2cc(F)ccc2o1)C(=O)N[C@H]1CCCN(S(=O)(=O)c2ccccn2)CC1=O (stereo in doubt) [Example 166, 5-Fluoro-benzofuran-2-carboxylic acid {(S)-3-methyl-1-[3-oxo-1-(pyridine-2-sulfonyl)-azepan-4-ylcarbamoyl]-butyl}-amide]		6	
CC(C)C[C@@H](NC(=O)c1cnc2ccccc2n1)C(=O)N[C@@H]1CCCN(S(=O)(=O)c2cccc[n+]2[O-])CC1=O [Example 101, Quinoxaline-2-carboxylic acid {(S)-3-methyl-1-[3-oxo-1-(1-oxy-pyridine-2-sulfonyl)-azepan-4-ylcarbamoyl]-butyl}amide]		11	
O=C(N[C@H](CC1CCCCC1)C(=O)N[C@@H]1CCCN(S(=O)(=O)c2ccccn2)CC1=O)c1cc2ccccc2o1 (stereo in doubt) [Example 102, Benzofuran-2-carboxylic acid {(S)-2-cyclohexyl-1-[3-oxo-1-(pyridine-2-sulfonyl)-azepan-4-ylcarbamoyl]-ethyl}-amide]		3.7	
COc1ccc2c(C)c(C(=O)N[C@@H](CC(C)C)C(=O)N[C@H]3CCN(S(=O)(=O)c4cccc[n+]4[O-])CCC3=O)oc2c1 [Example 204, 6-Methoxy-3-methyl-benzofuran-2-carboxylic acid {(S)-3-methyl-1-[3-oxo-1-(1-oxy-pyridine-2-sulfonyl)-azepan-4-ylcarbamoyl]-butyl}-amide]		4.5	
Cc1c(C(=O)N[C@H](CC(C)C)C(=O)N[C@H]2CCCN(S(=O)(=O)c3cccc[n+]3[O-])CC2=O)oc2cc(F)ccc12 [Example 193, 6-Fluoro-3-methyl-benzofuran-2-carboxylic acid {(S)-3-methyl-1-[3-oxo-1-(1-oxy-pyridine-2-sulfonyl)-azepan-4-ylcarbamoyl]-butyl}-amide]		8.1	
CCc1c(C(=O)N[C@@H](CC(C)C)C(=O)N[C@H]2CCN(S(=O)(=O)c3cccc[n+]3[O-])CCC2=O)oc2ccccc12 [Example 202, 3-Ethyl-benzofuran-2-carboxylic acid {(S)-3-methyl-1-[3-oxo-1-(1-oxy-pyridine-2-sulfonyl)-azepan-4-ylcarbamoyl]-butyl}-amide]		8.7	
CC(C)C[C@@H](NC(=O)c1cc2sccc2s1)C(=O)N[C@@H]1CCCN(S(=O)(=O)c2cccc[n+]2[O-])CC1=O [Example 62, Thieno[3,2-b]thiophene-2-carboxylic acid {(S)-3-methyl-1-[3-oxo-1-(1-oxy-pyridine-2-sulfonyl)-azepan-4-ylcarbamoyl]-butyl}amide]		5.3	
COc1ccc2oc(C(=O)N[C@@H](CC(C)C)C(=O)N[C@H]3CCCN(S(C)(=O)=O)CC3=O)cc2c1 [Example 81, 5-Methoxy-benzofuran-2-carboxylic acid [(S)-1-(1-methanesulfonyl-3-oxo-azepan-4-ylcarbamoyl)-3-methyl-butyl]-amide]		7.2	
CC(C)C[C@H](NC(=O)c1cc2ccccc2o1)C(=O)N[C@H]1CCCN(S(=O)(=O)c2ncc[nH]2)CC1=O [Example 41, Benzofuran-2-carboxylic acid {(S)-3-methyl-1-[1-(1H-imidazole-2-sulfonyl)-3-oxo-azepan-4-ylcarbamoyl]-butyl}amide]		2.9	
CC(C)CC(NC(=O)c1ccco1)C(=O)N[C@@H]1CCCN(S(=O)(=O)c2cccc[n+]2[O-])CC1=O (stereo partly drawn) [Example 75, Furan-2-carboxylic acid {(S)-3-methyl-1-[3-oxo-1-(1-oxy-pyridine-2-sulfonyl)-azepan-4-ylcarbamoyl]-butyl}amide]		7.5	
COc1ccc(CC(=O)N[C@@H](CC(C)C)C(=O)NC2CCCN(S(=O)(=O)c3ccccn3)CC2=O)cc1OCc1ccccc1 (some centres unmarked) [Example 123]		31	
CC(C)C[C@@H](NC(=O)c1ccc(-c2ccc([N+](=O)[O-])cc2)o1)C(=O)N[C@@H]1CCCN(S(=O)(=O)c2ccccn2)CC1=O (stereo in doubt) [Example 36, 5-(4-Nitro-phenyl)-furan-2-carboxylic acid {(S)-3-methyl-1-[3-oxo-1-(pyridine-2-sulfonyl)-azepan-4-ylcarbamoyl]-butyl}amide]		9.1	
